According to patent publication US6737240B1, “Methods of screening for a multi-drug resistance conferring peptide” (Rigel Pharmaceuticals, Inc., priority 1999, dated 2004):

Experiments:
HeLa cells [1] = assay: Growth rate of GFP positive versus GFP negative population; format: cell-based; conditions: data not shown
[2] = target: T1, proteasome alpha type subunit XAPC7 (Homo sapiens, UniProt O14818); assay: Yeast two-hybrid screening with RGP8.5 bait; format: binding; conditions: of 26 positive clones from 20 million transformants
T1 construct: expressed in transfected cells; host or cells: yeast (two-hybrid transformants)
T1 sequence (O14818 1-248): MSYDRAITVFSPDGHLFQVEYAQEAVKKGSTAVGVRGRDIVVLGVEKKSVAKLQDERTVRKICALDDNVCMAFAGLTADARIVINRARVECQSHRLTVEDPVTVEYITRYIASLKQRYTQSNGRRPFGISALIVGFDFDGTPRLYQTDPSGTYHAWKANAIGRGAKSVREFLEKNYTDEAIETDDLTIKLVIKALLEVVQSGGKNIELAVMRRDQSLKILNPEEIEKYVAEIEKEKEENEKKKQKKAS
Text: (§1) Yeast two-hybrid screening. The bait used for two-hybrid screening was RGP8.5 fused to the Gal4 DNA binding domain containing a three glycine linker/spacer. A cDNA library made from a combination of multiple human tissues (brain, lymphocyte, stomach, pancreas, liver, intestine) was used for the screening. 20 million transformants were screened. 27 His^+/LacZ^+ colonies were retrieved for further analysis.

[3] = target: T2, proteasome alpha type subunit Zeta (Homo sapiens, UniProt P28066); assay: Yeast two-hybrid screening with RGP8.5 bait; format: binding; conditions: of 26 positive clones from 20 million transformants
T2 construct: expressed in transfected cells; host or cells: yeast (two-hybrid transformants)
T2 sequence (P28066 1-241): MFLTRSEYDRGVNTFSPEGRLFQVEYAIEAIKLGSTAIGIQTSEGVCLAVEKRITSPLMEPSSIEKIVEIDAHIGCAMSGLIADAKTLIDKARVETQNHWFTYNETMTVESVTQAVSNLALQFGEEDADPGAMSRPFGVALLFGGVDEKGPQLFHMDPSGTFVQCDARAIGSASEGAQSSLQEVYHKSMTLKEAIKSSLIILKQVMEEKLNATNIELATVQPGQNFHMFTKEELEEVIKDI
Text: as §1

MRP = MRP expression in Hela tTA cells; format: cell-based; conditions: data not shown
HeLa cells [4] = assay: Flow cytometric analysis of cellular DNA content (cell cycle); format: cell-based; conditions: peptide positive (GFP gated) vs peptide negative cells
Experimental: RG8.5 peptide expressing cells were growing to 50% confluence. The cells were harvested and processed for flow cytometry of DNA. In the DNA content profile, the bold line represents the peptide negative cells and the grayed area curve represents the RG8.5 peptide positive cells. Cells were gated for GFP expression, FIG. 6B top, as indicated.
Flow cytometric analysis of cellular DNA content. The RG8.5 expressing cells were grown in the logarithmic phase. The cells were harvested, washed once with PBS and fixed in 2% paraformaldehyde pH7.4 at 4° C. for 30 minutes. After washing with 1 %BSA-PBS, the cells were resuspended in PI staining buffer containing […] RNase, 50 ug/ml PI, 0.1% Triton X100 in 0.1% Na Citrate pH7.4 buffer, RT for 30 min, and analyzed on FACS.

XAPC7 = target: T3, XAPC7 (Homo sapiens, UniProt O14818); assay: Biotinylated RGP8.5 peptide affinity purification from HeLa cell extract; format: binding; conditions: streptavidin beads
T3 construct: endogenous in cells; host or cells: HeLa cell extract
Experimental: (§2) HeLa cell extract were pre-cleared with a streptavidin column. The biotinylated RG8.5 peptide was then added to the cell lysate and allowed to mix overnight at 4° C. Next day streptavidin agarose beads were incubated with the cell extract for 3 hours at 4° C. After washing the beads five times with lysis buffer, the associated proteins were eluted with 2× protein sample buffer, resolved on SDS-PAGE and detected with monoclonal antibody against Zeta and XAPC7 proteasome subunits.
(§3) Transfection, immunoprecipitation and western blot. A calcium phosphate transfection method was used for all transfections of test constructs into 293T cells. Cells were lysed in […] of TNT buffer (20 mM Tris-HCl pH7.5, 200 mM NaCl and 1% Triton-X100), supplemented with 1 mM DTT and protease cocktail (Boehringer Mannheim). The cell extracts were incubated with […] anti-flag antibody conjugated beads (Babco) at 4° C. The beads were spun down and washed with […] TNT buffer for four times. For immunoprecipitation with biotinylated RG8.5 peptide, 3 10^6 Hela cells were lysed in a buffer containing 20 mM HEPES pH7.4, 150 mM NaCl and 1% NP40 and precleaned with a Streptavidin column (Pierce, Rockford, Ill.) to reduce non-specific binding. 3 ml of biotinylated RG8.5 peptide (1 mg/ml) in DMSO was added to the cell lysate and allowed to mix overnight at 4 ° C. […]

Zeta = target: T4, Zeta (Homo sapiens, UniProt P28066); assay: as above; format: binding; conditions: streptavidin beads
T4 construct: endogenous in cells; host or cells: HeLa cell extract
Experimental: as §2, §3

hsp70 = assay: Western blot of endogenous protein levels in RGP8.5 HeLa clone; format: cell-based; conditions: irrespective of expression of the peptide
Experimental: (§4) FIG. 6 depicts that inhibition of proteasome activity by RGP8.5 arrests cell cycle progression. […] To examine the effect of RGP8.5 on the endogenous protein expression, RGP8.5 expressing HeLa cells were incubated with doxycycline (200 ng/ml) for 4 days before harvesting for western analysis. Equal amount of cell lysate were loaded on each lane, separated by SDS-PAGE and immunoblotted with antiserum against GFP (Kodak), hsp70 and cyclin B1 (Santa Cruz).
as §3

cyclin B = assay: as above; format: cell-based; conditions: RGP8.5 expressing cells compared with GFP negative cells
Experimental: as §4, §3

Bcl-xL = assay: Endogenous anti-apoptotic protein level; format: cell-based; conditions: cells expressing RGP8.5, presence or absence of Dox; data not shown

positive yeast two-hybrid clones encoding XAPC7 [2]: 25
positive yeast two-hybrid clones encoding Zeta [3]: 1
binding of endogenous XAPC7 subunit (XAPC7): shown to bind
binding of endogenous Zeta subunit (Zeta): shown to bind
Substance: MGEFLIVKVVWGRMVCWV-LVVRRFVLVIVLENSLSSNQGPP [RGP8.5]
impact on cell growth (HeLa cells [1]): negative impact
levels of MRP expression (MRP): no effect
cell cycle distribution (HeLa cells [4]): accumulate at G2/M
endogenous hsp70 protein level (hsp70): same level
endogenous cyclin B protein level (cyclin B): slightly elevated levels
Bcl-xL expression level (Bcl-xL): same expression level
